# Reference: patent US20190365680A1, “USE OF EP4 RECEPTOR ANTAGONISTS FOR THE TREATMENT OF NASH-ASSOCIATED LIVER CANCER” (AskAt Inc., priority 2016, published 2019)
# How the values were obtained:
# [1] = Body weight in the NASH-associated mouse liver cancer model; type: in vivo; conditions: 30 mg/kg QD from 19 to 30 weeks of age; weight at the age of 30 weeks
# Method: FIG. 4 depicts the average body weight of the vehicle-treated group and Compound A-treated group at the age of 30 weeks. Data are represented as means ±SD.
# (§1) This mouse model was developed by treating with DMBA, 7,12-dimethylbenz(a)anthracene, and by feeding a high fat diet (HFD) (NPL 15). […] In this experiment, Compound A 30 mg/kg QD was administered to the mice every day from 19 weeks of age to 30 weeks of age (FIG. 1). As a control, a separate group of mice were treated only with a vehicle and no active ingredient.
# [2] = tested on: immune cells obtained from mouse livers; conditions: liver; 30 mg/kg QD from 19 to 30 weeks of age; vs vehicle
# Method: FIG. 5A depicts flow cytometry analysis of immune cells between vehicle-treated mice or Compound A-treated mice. The percentages of total CD11c^hi MHC class II (MHC II)^hi, CD11b^+ CD11c^hi MHC II^hi, or CD103^+ CD11c^hi MHC II^hi cells were analyzed by flow cytometry. Data are represented as means ±SEM.
# FIG. 6A depicts the percentages of CD3^+ CD4^+ Foxp3^+, CD3^+ CD4^+ Foxp3^−, CD3^+ CD8^+ cells analyzed by flow cytometry. The ratio of CD8^+ T cells to CD4^+ Foxp3^+ Tregs was calculated. Data are represented as means ±SEM. NS=not significant, *p<0.05, **p<0.01.
# In FIG. 7A, the percentages of CD69^+ CD8^+ cells were analyzed by flow cytometry (*p<0.05, **p<0.01).
# In FIG. 8A, the percentages of PD-1^+ CD8^+ cells were analyzed by flow cytometry (*p<0.05, **p<0.01).
# Immune cells were obtained from mouse livers and were subjected to measuring cytokine production and flow cytometric analysis.
# Data were analyzed by unpaired t-test with Welch correction (two-side) or Man-Whitney test (two-side). P values less than 0.05 were considered significant. “NS” indicates not significant.
# The impact of EP4 blockage on the prevalence and activation status of immune cells was assessed.
# [3] = tested on: obesity-induced NASH-associated liver cancer; assay: Obesity-induced (DMBA + high fat diet) NASH-associated mouse liver cancer model: liver tumor development; type: in vivo
# Method: FIG. 1 depicts a mouse model timeline developed by treating with 7,12-dimethylbenz(a)anthracene (“DMBA”), and by feeding with a high fat diet (HFD). Compound A was administered to the mice every day from 19 weeks of age to 30 weeks of age and then euthanized (“Eut”).
# FIG. 2 is macroscopic photographs of the liver isolated from the vehicle-treated mice (left side) and Compound A-treated mice (right side). […] Compound A or a vehicle (n=5, each) were treated to the mice every day from 19 weeks of age to 30 weeks of age. Arrowheads identify hepatocellular carcinomas (HCCs).
# FIG. 3 depicts the average liver tumor numbers and the relative size distribution (classified as >6 mm, 2-6 mm, ≤2 mm). “NS” means not significant.
# C57/BL6 mice were purchased from CLEA Japan Inc. The Tlr2^−/− mice (C57/BL6) were purchased from Oriental Yeast Co. Ltd.
# Hematoxylin and eosin staining and immunofluorescence analysis were performed as previously described (Yoshimoto et al., Nature, 2013, 499:97-101).
# P values less than 0.05 were considered significant. “NS” indicates not significant.
# as §1
smiles,measurement,setting,value
"C[C@H](NC(=O)c1cc(Cl)cnc1Oc1cccc(F)c1)c1ccc(C(=O)O)cc1 [Compound A, 4-[(1S)-1-({[5-chloro-2-(3-fluorophenoxy)pyridin-3-yl]carbonyl}amino)ethyl]-benzoic acid]",body weight,[1],did not influence
same,frequency of CD4+Foxp3+ regulatory T cells (Tregs),[2],significantly reduced
same,frequency of CD8+ T cells,[2],not changed
same,frequency of CD11b+ DCs,[2],not changed
same,frequency of CD11chi MHC class IIhi dendritic cells (DCs),[2],not changed
same,number of CD8+ T cells expressing programmed cell death-1 (PD-1),[2],significantly reduced
same,number of CD8+ T cells expressing the activation marker CD69,[2],significantly increased
same,population of CD103+ DCs,[2],increased
same,ratio of CD8+ T cells to Tregs,[2],increased
same,Hepatocellular carcinoma (HCC) development compared to vehicle-treated mice,"[3]; C57/BL6 mice, DMBA + HFD, 30 mg/kg QD every day from 19 to 30 weeks of age",strongly reduced
same,Tumor colony sized more than 6 mm,"[3]; DMBA + HFD mice, treated every day from 19 to 30 weeks of age",completely disappeared
same,tumor number in the liver compared to vehicle-treated mice,"[3]; DMBA + HFD mice, treated every day from 19 to 30 weeks of age, n=5",significantly inhibited
